Test results: US12371454B2, “Cyclic peptide compound having Kras inhibitory action” (priority 2019, dated 2025)
Starred links: 1 amine or outer side, 2 acyl side, 3 side chain; linkers in the order of their positions; H or OH if unused. Positions of bridges follow the written chain, without caps; N, C: chain ends. Non-standard residues stand in square brackets, D forms with d. Residues, ends and D or L forms follow the SMILES beside them. *: point of attachment. hPhe(3-Cl-4-CF3) = N[C@@H](CCc1ccc(C(F)(F)F)c(Cl)c1)C(=O)O; hPhe(3-F,4-CF3) = N[C@@H](CCc1ccc(C(F)(F)F)c(F)c1)C(=O)O; X39 = COc1ccc(C[C@@H](C(=O)[*:2])N(C)[*:1])cn1; NMePhe(4-Me) = CN[C@@H](Cc1ccc(C)cc1)C(=O)O; NMeNle(6-CHF2) = CN[C@@H](CCCCC(F)F)C(=O)O; NMePhe(2-Cl) = CN[C@@H](Cc1ccccc1Cl)C(=O)O; X83 = O=C([C@H](Cc1cncc(Br)c1)N[*:1])[*:2]; NMedβ3hAla = C[C@H](CC(=O)[*:2])N(C)[*:1]; NMe4Pal = CN[C@@H](Cc1ccncc1)C(=O)O; NMeY = CN[C@@H](Cc1ccc(O)cc1)C(=O)O; NMeCha = CN[C@@H](CC1CCCCC1)C(=O)O; NMeChg = CN[C@H](C(=O)O)C1CCCCC1; NMeI = CC[C@H](C)[C@H](NC)C(=O)O; N(CH2CH2)2CF2 = FC1(F)CCN(*)CC1; NMeD = CN[C@@H](CC(=O)O)C(=O)O; dNMeD = CN[C@H](CC(=O)O)C(=O)O; NMeL = CN[C@@H](CC(C)C)C(=O)O; Chg = N[C@H](C(=O)O)C1CCCCC1; NMeV = CN[C@H](C(=O)O)C(C)C; d(β3hA) = C[C@@H](N)CC(=O)O; NMeAbu = CC[C@H](NC)C(=O)O; NMeA = CN[C@@H](C)C(=O)O; NMeAib = CNC(C)(C)C(=O)O; Nle = CCCC[C@H](N)C(=O)O; Piperidide = C1CCN(*)CC1; Pyrrolidide = C1CCN(*)C1; Ac5c = NC1(C(=O)O)CCCC1; Aze = O=C(O)[C@@H]1CCN1; Aib = CC(C)(N)C(=O)O; Sar = CNCC(=O)O

These compounds were tested against T1, Kras and SOS1 (biotin-tagged human Kras loaded with GDP, His-tagged human SOS1) (Homo sapiens, UniProt P01116, G12D) (assay: Protein-protein interaction inhibition between Kras and SOS1 (KrasGl2D-SOS PPI) using AlphaScreen). Settings: AlphaScreen; biotin-tagged human Kras loaded with GDP, His-tagged human SOS1; read-out: KRAS G12D-SOS PPI IC50.
T1 construct: made in house; host or cells: E. coli (stated for Kras only)
T1 sequence (P01116 1-188 isoform P01116-2 G12D): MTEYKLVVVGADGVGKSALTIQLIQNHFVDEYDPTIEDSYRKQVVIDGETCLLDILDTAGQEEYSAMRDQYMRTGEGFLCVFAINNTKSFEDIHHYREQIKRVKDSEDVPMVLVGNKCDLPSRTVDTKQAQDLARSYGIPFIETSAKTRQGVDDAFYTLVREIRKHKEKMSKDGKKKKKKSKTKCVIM
Format: binding
How it was run: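 Donor beads (nickel) hold His-SOS1; acceptor beads (streptavidin) hold biotin-Kras bound to GDP. Signal measured at 520-620 nm following 680 nm excitation.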
In the case of `CC[C@H](C)[C@@H]1NC(=O)[C@H](C)N(C)C(=O)C[C@@H](C(=O)N2CCCC2)N(C)C(=O)[C@H](C(C)C)N(C)C(=O)[C@H](C)NC(=O)[C@H](Cc2ccccc2Cl)N(C)C(=O)[C@H](CCc2ccc(C(F)(F)F)c(Cl)c2)NC(=O)CN(C)C(=O)[C@H](CC2CCCCC2)N(C)C(=O)CN(C)C(=O)CN(C)C1=O` [Compound 624] ([NMeA]I[Sar][Sar][NMeCha][Sar][hPhe(3-Cl-4-CF3)][NMePhe(2-Cl)]A[NMeV][NMeD]-Pyrrolidide; lactam N-11), the IC50 is reported as 160 nM. `CC[C@H](C)[C@@H]1NC(=O)[C@H](CC(C)C)N(C)C(=O)C[C@H](C(=O)N2CCCC2)N(C)C(=O)[C@H]([C@@H](C)CC)N(C)C(=O)C2(CCCC2)NC(=O)[C@@H]2CCCN2C(=O)[C@H](CCc2ccc(C(F)(F)F)c(Cl)c2)NC(=O)CN(C)C(=O)[C@H](CC2CCCCC2)N(C)C(=O)CN(C)C(=O)CN(C)C1=O` [Compound 1814] ([NMeL]I[Sar][Sar][NMeCha][Sar][hPhe(3-Cl-4-CF3)]P[Ac5c][NMeI][dNMeD]-Pyrrolidide; lactam N-11) gave an IC50 of 170 nM. `CC[C@H](C)[C@@H]1NC(=O)[C@H](CC(C)C)N(C)C(=O)C[C@@H](C(=O)N2CCCCC2)N(C)C(=O)[C@H](CC(C)C)N(C)C(=O)C(C)(C)NC(=O)[C@H](CC(C)C)N(C)C(=O)[C@H](CCc2ccc(C(F)(F)F)c(F)c2)NC(=O)CN(C)C(=O)[C@H](CCCCC(F)F)N(C)C(=O)CN(C)C(=O)CN(C)C1=O` [Compound 1456] ([NMeL]I[Sar][Sar][NMeNle(6-CHF2)][Sar][hPhe(3-F,4-CF3)][NMeL][Aib][NMeL][NMeD]-Piperidide; lactam N-11) showed an IC50 of 12 nM. `CC[C@H](C)[C@@H]1NC(=O)[C@H](CC(C)C)N(C)C(=O)C[C@@H](C(=O)N2CCCCC2)N(C)C(=O)[C@H](C2CCCCC2)N(C)C(=O)C2(CCCC2)NC(=O)[C@H](Cc2ccc(OC)nc2)N(C)C(=O)[C@H](CCc2ccc(C(F)(F)F)c(Cl)c2)NC(=O)CN(C)C(=O)[C@H](CC2CCCCC2)N(C)C(=O)[C@@H]2CCN2C(=O)CN(C)C1=O` [Compound 614] ([NMeL]I[Sar][Aze][NMeCha][Sar][hPhe(3-Cl-4-CF3)][X39][Ac5c][NMeChg][NMeD]-Piperidide; lactam N-11) showed an IC50 of 24 nM. With `CC[C@H](C)[C@@H]1NC(=O)[C@H](CC(C)C)N(C)C(=O)C[C@@H](C(=O)N(C)C)N(C)C(=O)[C@H]([C@@H](C)CC)N(C)C(=O)[C@H](C(C)C)NC(=O)[C@H](Cc2ccncc2)N(C)C(=O)[C@H](CCc2ccc(C(F)(F)F)c(Cl)c2)NC(=O)CN(C)C(=O)[C@H](Cc2ccc(C)cc2)N(C)C(=O)[C@@H]2CCN2C(=O)[C@H](C)N(C)C1=O` [Compound 1897] ([NMeL]I[NMeA][Aze][NMePhe(4-Me)][Sar][hPhe(3-Cl-4-CF3)][NMe4Pal]V[NMeI][NMeD]-NMe2; lactam N-11) the IC50 was 9.9 nM. `CC[C@H](C)[C@@H]1NC(=O)[C@H](C)N(C)C(=O)C[C@@H](C(=O)N2CCCCC2)N(C)C(=O)[C@H](C(C)C)N(C)C(=O)[C@H](CC(C)C)NC(=O)[C@H](CC(=O)N2CCC(F)(F)CC2)N(C)C(=O)[C@H](CCc2ccc(C(F)(F)F)c(Cl)c2)NC(=O)CN(C)C(=O)[C@H](CC2CCCCC2)N(C)C(=O)CN(C)C(=O)CN(C)C1=O` [Compound 826] ([NMeA]I[Sar][Sar][NMeCha][Sar][hPhe(3-Cl-4-CF3)][NMeD](N(CH2CH2)2CF2)L[NMeV][NMeD]-Piperidide; lactam N-11) was tested, and the IC50 was 110 nM. `CC[C@H](C)[C@@H]1NC(=O)[C@H](C)N(C)C(=O)C[C@@H](C)N(C)C(=O)[C@H](CC(C)C)NC(=O)C(C)(C)N(C)C(=O)[C@H](CC(C)C)NC(=O)[C@H](CCc2ccc(C(F)(F)F)c(Cl)c2)NC(=O)CN(C)C(=O)[C@H](Cc2ccc(C)cc2)N(C)C(=O)[C@@H]2CCN2C(=O)CN(C)C1=O` [Compound 1377] (cyclo([Aze][NMePhe(4-Me)][Sar][hPhe(3-Cl-4-CF3)]L[NMeAib]L[NMedβ3hAla][NMeA]I[Sar])) was tested, and the IC50 was 5.8 nM. With `CCCC[C@@H]1NC(=O)[C@H](Cc2cncc(Br)c2)NC(=O)CN(C)C(=O)[C@H](Cc2ccc(OC)cc2)N(C)C(=O)[C@@H]2CCN2C(=O)[C@H](C)N(C)C(=O)[C@H]([C@@H](C)CC)NC(=O)[C@H](CC)N(C)C(=O)C[C@@H](C(=O)N2CCCCC2)N(C)C(=O)[C@H](CC(C)C)NC(=O)C(C)(C)N(C)C1=O` [Compound 1240] ([NMeAbu]I[NMeA][Aze][NMeY](Me)[Sar][X83][Nle][NMeAib]L[NMeD]-Piperidide; lactam N-11) the IC50 was 290 nM. For `CC(C)C[C@H]1C(=O)N[C@@H](C2CCCCC2)C(=O)N(C)CC(=O)N(C)CC(=O)N(C)[C@@H](CC2CCCCC2)C(=O)N(C)CC(=O)N[C@@H](CCc2ccc(C(F)(F)F)c(Cl)c2)C(=O)N2CCC[C@H]2C(=O)NC2(CCCC2)C(=O)N(C)[C@@H](C(C)C)C(=O)N[C@H](C)CC(=O)N1C` [Compound 937] (cyclo([Ac5c][NMeV][d(β3hA)][NMeL][Chg][Sar][Sar][NMeCha][Sar][hPhe(3-Cl-4-CF3)]P)), the IC50 was 250 nM.
